{"source": "patent US10584124B2", "about": "“Crystalline forms” (Array BioPharma Inc., priority 2017, dated 2020)", "key": {"[1]": {"test": "Solvent solubility screen of the compound of Formula II", "assay_type": "physicochemical", "settings": "40 °C, thermodynamic from solid, read-out: Approximate solubility", "experimental": "A solvent solubility screen was conducted in 32 solvent systems as follows.\nBetween each addition, the mixture was checked for dissolution. If no dissolution was apparent, the mixture was heated to around 40° C. and checked again. This procedure was continued until dissolution was observed or until 100 volumes of solvent had been added. Undissolved material from the solubility screen was isolated and analyzed by XRPD."}, "[2]": {"test": "Dynamic vapor sorption (DVS) of the compound of Formula II", "assay_type": "physicochemical", "experimental": "Approximately 10 mg of sample was placed into a mesh vapor sorption balance pan and loaded into a DVS-1 dynamic vapor sorption balance by Surface Measurement Systems. The sample was subjected to a ramping profile from 40-90% relative humidity (RH) at 10% increments, maintaining the sample at each step until a stable weight had been achieved (99.5% step completion). After completion of the sorption cycle, the sample was dried using the same procedure to 0% RH and then a second sorption cycle back to 40% RH. The weight change during the sorption/desorption cycles were plotted, allowing for the hygroscopic nature of the sample to be determined. XRPD analysis was then carried out on any solid retained.\nThe material appeared highly crystalline by XRPD (FIG. 62A). […] This event was followed by thermal degradation. […] (FIG. 62B)."}}, "note": "Where two headings read alike, the source gives them in different places.", "data": [{"smiles": "COc1ccc(CN2C3CC2CN(c2ccc(-c4cc(OCC(C)(C)O)cn5ncc(C#N)c45)cn2)C3)cn1", "note": "[compound of Formula II, 6-(2-hydroxy-2-methylpropoxy)-4-(6-(6-((6-methoxypyridin-3-yl)methyl)-3,6-diazabicyclo[3.1.1]heptan-3-yl)pyridin-3-yl)pyrazolo[1,5-a]pyridine-3-carbonitrile]", "values": [{"measurement": "solubility", "setting": "[1]; 1-Butanol, organic solvent or mixture", "value": "< 5000", "unit": "µg/mL"}, {"measurement": "solubility", "setting": "[1]; 1-Propanol, organic solvent or mixture", "value": "< 5000", "unit": "µg/mL"}, {"measurement": "solubility", "setting": "[1]; organic solvent or mixture, 1,4-Dioxane, (P) partial solubility at 100 volumes", "value": "< 5000", "unit": "µg/mL"}, {"measurement": "solubility", "setting": "[1]; organic solvent or mixture, 2-Ethoxyethanol, (P) partial solubility at 100 volumes", "value": "< 5000", "unit": "µg/mL"}, {"measurement": "solubility", "setting": "[1]; organic solvent or mixture, 2-Methyl THF, (P) partial solubility at 100 volumes", "value": "< 5000", "unit": "µg/mL"}, {"measurement": "solubility", "setting": "[1]; organic solvent or mixture, Anisole, (P) partial solubility at 100 volumes", "value": "< 5000", "unit": "µg/mL"}, {"measurement": "solubility", "setting": "[1]; organic solvent or mixture, CHCl3, (P) partial solubility at 100 volumes", "value": "< 5000", "unit": "µg/mL"}, {"measurement": "solubility", "setting": "[1]; organic solvent or mixture, Cyclohexanone, (P) partial solubility at 100 volumes", "value": "< 5000", "unit": "µg/mL"}, {"measurement": "solubility", "setting": "[1]; organic solvent or mixture, DCM, (P) partial solubility at 100 volumes", "value": "< 5000", "unit": "µg/mL"}, {"measurement": "solubility", "setting": "[1]; organic solvent or mixture, Nitromethane, (P) partial solubility at 100 volumes", "value": "< 5000", "unit": "µg/mL"}, {"measurement": "solubility", "setting": "[1]; organic solvent or mixture, THF, (P) partial solubility at 100 volumes", "value": "< 5000", "unit": "µg/mL"}, {"measurement": "solubility", "setting": "[1]; Acetone, organic solvent or mixture", "value": "< 5000", "unit": "µg/mL"}, {"measurement": "solubility", "setting": "[1]; Acetone:Water (50%), aqueous with cosolvent or surfactant or cyclodextrin", "value": "< 5000", "unit": "µg/mL"}, {"measurement": "solubility", "setting": "[1]; Cyclohexane, organic solvent or mixture", "value": "< 5000", "unit": "µg/mL"}, {"measurement": "solubility", "setting": "[1]; DMSO, organic solvent or mixture", "value": 41000, "unit": "µg/mL"}, {"measurement": "solubility", "setting": "[1]; EtOAc, organic solvent or mixture", "value": "< 5000", "unit": "µg/mL"}, {"measurement": "solubility", "setting": "[1]; Ethanol, organic solvent or mixture", "value": "< 5000", "unit": "µg/mL"}, {"measurement": "solubility", "setting": "[1]; IPA, organic solvent or mixture", "value": "< 5000", "unit": "µg/mL"}, {"measurement": "solubility", "setting": "[1]; MEK, organic solvent or mixture", "value": "< 5000", "unit": "µg/mL"}, {"measurement": "solubility", "setting": "[1]; MIBK, organic solvent or mixture", "value": "< 5000", "unit": "µg/mL"}, {"measurement": "solubility", "setting": "[1]; MeCN:Water (20%), aqueous with cosolvent or surfactant or cyclodextrin", "value": 5000, "unit": "µg/mL"}, {"measurement": "solubility", "setting": "[1]; MeOAc, organic solvent or mixture", "value": "< 5000", "unit": "µg/mL"}, {"measurement": "solubility", "setting": "[1]; NMP, organic solvent or mixture", "value": 17000, "unit": "µg/mL"}, {"measurement": "solubility", "setting": "[1]; THF:Water (1%), organic solvent or mixture", "value": 48000, "unit": "µg/mL"}, {"measurement": "solubility", "setting": "[1]; Water, water", "value": "< 5000", "unit": "µg/mL"}, {"measurement": "Hygroscopicity by DVS (in words)", "setting": "[2]", "value": "moderately hygroscopic"}, {"measurement": "Weight increase by DVS", "setting": "[2]; 90% RH", "value": "around 3.6%"}, {"measurement": "Change in Form post-DVS", "setting": "[2]; XRPD after DVS", "value": "No change in Form"}]}]}
